Data: paper PMC9913174, “Potent Inhibition of Macropinocytosis by Niclosamide in Cancer Cells: A Novel Mechanism for the Anticancer Efficacy for the Antihelminthic” (Cancers, 2023)

Target: SLC38A5 (Homo sapiens, UniProt Q8WUX1)
Assay: inhibition of Li+-stimulated [3H]-serine uptake in HPAF-II and TXBR-100 cells (endogenous transporter)
Type: cell-based

SLC38A5, sequence (Q8WUX1 whole entry): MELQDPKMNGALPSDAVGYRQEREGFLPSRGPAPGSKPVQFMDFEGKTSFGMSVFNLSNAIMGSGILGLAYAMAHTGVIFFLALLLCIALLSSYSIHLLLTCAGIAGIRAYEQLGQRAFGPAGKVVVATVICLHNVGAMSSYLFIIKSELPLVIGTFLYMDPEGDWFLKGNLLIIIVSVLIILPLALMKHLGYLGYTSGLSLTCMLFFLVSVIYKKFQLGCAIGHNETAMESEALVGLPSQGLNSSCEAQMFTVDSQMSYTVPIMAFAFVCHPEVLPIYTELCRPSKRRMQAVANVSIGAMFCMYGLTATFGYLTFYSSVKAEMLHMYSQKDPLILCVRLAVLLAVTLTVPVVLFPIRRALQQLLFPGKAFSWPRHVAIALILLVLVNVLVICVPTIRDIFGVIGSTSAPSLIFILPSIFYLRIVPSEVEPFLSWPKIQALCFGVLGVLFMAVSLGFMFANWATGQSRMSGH

IC50: 1 to 2.5 µM
SMILES: O=C(Nc1ccc([N+](=O)[O-])cc1Cl)c1cc(Cl)ccc1O [niclosamide]
